# Columns and labels:
# SpAMT1;1 = settings: NH4Cl 10-10,000 µM; pH 5.5 (MES/Tris); choline chloride 110 mM; membrane potential for the fit not told
# SpAMT1;3 = settings: NH4Cl 10-10,000 µM; pH 5.5 (MES/Tris); choline chloride 110 mM; membrane potential for the fit not told
smiles,measurement,setting,value
N [ammonium],Km,SpAMT1;1,116 µM
same,Km,SpAMT1;3,5400 µM
